Measured values: patent US4472400A, “Triazoloquinazolones having antihistaminic and bronchospasmolytic activity” (Roussel Uclaf, priority 1981, dated 1984)
Where two headings read alike, the source gives them in different places.

Tests used:
[1] = tested on: histamine induced resistance change; assay: Measurement of Pulmonary Compliance and Resistance (RMG), histamine induced resistance change; format: in vivo, guinea pig (male Dunkin Hartley); settings: Cavia porcellus, iv; anaesthetised guinea-pigs (Hypnorm/Valium), gallamine pre-treated; compound via right jugular vein; forced oscillation; read-out: RMG ED50 (effective dose required to reduce the histamine induced resistance change by 50%)
Description: (B) Measurement of Pulmonary Compliance and Resistance (RMG)
Male Dunkin Hartley guinea-pigs weighing between 400 and 650 g were anaesthetised with a combination of Hypnorm (1 ml/kg i.m.) and Valium (5 mg/kg i.p.). The trachea was cannulated and cannulae were inserted into the right jugular vein for the administration of compounds and left carotid artery for blood pressure measurement.
The animals were ventilated at a tidal volume of 6-8 ml and 10-12 cmH2 0 distension pressure was obtained. The respiratory rate was adjusted to 40-50/min. The animals were pre-treated with gallamine triethiodide (4 mg/kg i.v.) to maintain paralysis of respiratory muscles. Oxygen enrichment was applied to the inspiratory limb of the ventilator.
Respiratory resistance was measured by forced oscillation (Clay and Hughes 1980). Sinusodal wave forms of pressure were divided by flow at constant lung volumes to detect resistance changes. Sine wave production was achieved by a loudspeaker driven at 6-7 Hz through a pressure transducer, pneumotachograph and differential pressure transducer to detect pressure and flow contributions of the wave form. […] Drugs and analysis of activity were as described for the Konzett Rossler technique. Ref. Clay, T. P. and Hughes, J. M. B. (1980) J. Physiol. 308 427-437. The results given in Table V show the effective dose of each of the test compounds required to reduce the histamine induced resistance change by 50%.

[2] = tested on: histamine-induced bronchoconstriction; assay: Effects on histamine-induced bronchoconstriction in anaesthetised guinea pigs (KRG); format: in vivo, guinea pig (male Dunkin Hartley); settings: Cavia porcellus, iv, read-out: KRG ED50 (effective dose required to reduce the histamine-induced constriction in lung air volume by 50%)
Description: (A) Effects on histamine-induced bronchoconstriction in anaesthetised guinea pigs (KRG)
Male Dunkin Hartley guinea-pigs weighing 350-650 grams were anaesthetised with urethane (25% w/v solution in distilled water at 7.0 ml/kg i.p). […] The animals were ventilated with a ventilatory pump, stroke volume of 8 ml and frequency of 52 to maintain a lung inflation pressure of 10 cm of H2 O. Blood pressure was measured via a cannula in the right carotid artery connected to a Statham blood pressure transducer and a Devices M2 recorder. The test compounds were administered via the cannulated left jugular vein and washed in with 0.1 ml of 0.9% w/w NaCl in distilled water. The test product was administered immediately before the histamine which was used as the agonist.
Respiratory changes were recorded via a differential transducer connected to an SE 905 transducer/converter which in turn was connected to a Devices M2 recorder.

[3] = anaesthetised guinea-pigs (urethane), test compound i.v. (jugular vein) immediately before histamine

SMILES	ED50 [1] [mg/kg]	ED50 [2, 3] [mg/kg]	ED50 [2] [mg/kg]
CCCCn1c(=O)c2ccccc2n2c(CN3CCCCC3)nnc12 [Example 21, 1-piperidinomethyl-4-n-butyl[1,2,4]triazolo[4,3-a]quinazolin-5(4H)-one]	0.15	0.11	
CN1CCN(Cc2nnc3n(C)c(=O)c4ccccc4n23)CC1 [Example 27]	0.8		
Cn1c(=O)c2ccccc2n2c(CN3CCOCC3)nnc12 [Example 24]	1.8	2.76	
CCCn1c(=O)c2ccccc2n2c(CN(CC)CC)nnc12 [Example 2]	0.5		
CCCn1c(=O)c2ccccc2n2c(CN3CC(C)CC(C)C3)nnc12 (centres unmarked) [Example 8]		1	
CCN(CC)Cc1nnc2n(CC)c(=O)c3ccccc3n12 [Example 30]	1		
CCCn1c(=O)c2ccccc2n2c(CN3CC4CCC(CC4)C3)nnc12 [Example 7]			0.33
CCCCn1c(=O)c2ccccc2n2c(CN3CCCCCC3)nnc12 [Example 22, 1-(2,3,4,5,6,7,-hexahydroazepino)methyl-4-n-butyl[1,2,4]triazolo[4,3-a] quinazolin-5(4H)-one]		0.84	
CCCn1c(=O)c2ccccc2n2c(CN3CCCC3)nnc12 [Example 4]		2	
O=c1c2ccccc2n2c(CN3CCCCC3)nnc2n1-c1ccccc1 [Example 31]		0.58	
CCCn1c(=O)c2ccccc2n2c(CNC3CCCCC3)nnc12 [Example 11]		1.8	
CCCn1c(=O)c2ccccc2n2c(CN3CCN(C)CC3)nnc12 [Example 3]		5.28	
CC(C)n1c(=O)c2ccccc2n2c(CN3CCCCC3)nnc12 [Example 19]		0.185	
CCCn1c(=O)c2ccccc2n2c(CN3CCCCC3)nnc12.Cl.O [Example 1, 1-Piperidinomethyl-4-n-propyl[1,2,4]triazolo[4,3-a]quinazolin-5(4H)-one hydrochloride, monohydrate]		0.12	
CC(C)n1c(=O)c2ccccc2n2c(CN3CCCCCC3)nnc12 [Example 20]		0.8	
Cn1c(=O)c2ccccc2n2c(CN3CCCCC3)nnc12 [Example 23]	1	> 1	
CCCn1c(=O)c2ccccc2n2c(CN3CCCCCC3)nnc12 [Example 5]	0.3	0.096	
CCCCNCc1nnc2n(CCC)c(=O)c3ccccc3n12 [Example 12]		1.3	
CCCNCc1nnc2n(CCC)c(=O)c3ccccc3n12 [Example 10]		1.97	
CCN(CC)Cc1nnc2n(C)c(=O)c3ccccc3n12 [Example 26]	1	3.75	
CCn1c(=O)c2ccccc2n2c(CN3CCCCC3)nnc12 [Example 29, 1-piperidinomethyl-4-ethyl[1,2,4]triazolo[4,3-a]quinazolin-5 (4H)-one]	0.5	0.35	
CCOC(=O)N1CCN(Cc2nnc3n(C)c(=O)c4ccccc4n23)CC1 [Example 25]	3.5	5	
CCCn1c(=O)c2ccccc2n2c(CN3CCN(c4ccccc4)CC3)nnc12 [Example 6]		5	
CCCCN(CCCC)Cc1nnc2n(CCC)c(=O)c3ccccc3n12 [Example 14]		2.9	
C=CCn1c(=O)c2ccccc2n2c(CN3CCCCC3)nnc12 [Example 33, 4-allyl-1-piperidinomethyl[1,2,4]triazolo[4,3-a]quinazolin-5(4H)-one]		0.31	
